The NIST ThermoML archive (doi:10.1021/je050503q)
Numbers after ± are expanded uncertainties.

Assay: xn = mol fraction of the nth substance listed
Details: Liquid

COCCOCCOCCOC [2,5,8,11-tetraoxadodecane] + FCC(F)(F)F
Details | mass density [kg/m3]
283.27 K, 1086 kPa, x2 = 0.9485 | 1245.33 ± 0.38
283.27 K, 2000 kPa, x2 = 0.9485 | 1248.44 ± 0.39
283.27 K, 3016 kPa, x2 = 0.9485 | 1251.83 ± 0.39
283.27 K, 4003 kPa, x2 = 0.9485 | 1255.03 ± 0.4
283.27 K, 5009 kPa, x2 = 0.9485 | 1258.22 ± 0.4
283.27 K, 6019 kPa, x2 = 0.9485 | 1261.33 ± 0.41
283.28 K, 1070 kPa, x2 = 0.9798 | 1255.94 ± 0.37
283.28 K, 1986 kPa, x2 = 0.9798 | 1259.56 ± 0.37
283.28 K, 2984 kPa, x2 = 0.9798 | 1263.39 ± 0.38
283.28 K, 4004 kPa, x2 = 0.9798 | 1267.2 ± 0.38
283.28 K, 4996 kPa, x2 = 0.9798 | 1270.8 ± 0.38
283.28 K, 5989 kPa, x2 = 0.9798 | 1274.3 ± 0.39
283.29 K, 1047 kPa, x2 = 0.9655 | 1251.56 ± 0.38
283.29 K, 1992 kPa, x2 = 0.9655 | 1255.06 ± 0.38
283.29 K, 2996 kPa, x2 = 0.9655 | 1258.69 ± 0.39
283.29 K, 3988 kPa, x2 = 0.9655 | 1262.16 ± 0.39
283.29 K, 4999 kPa, x2 = 0.9655 | 1265.62 ± 0.39
283.29 K, 5987 kPa, x2 = 0.9655 | 1268.91 ± 0.4
293.3 K, 1086 kPa, x2 = 0.9485 | 1215.38 ± 0.37
293.3 K, 2016 kPa, x2 = 0.9485 | 1219.06 ± 0.37
293.3 K, 2998 kPa, x2 = 0.9485 | 1222.84 ± 0.37
293.3 K, 3985 kPa, x2 = 0.9485 | 1226.51 ± 0.38
293.3 K, 5000 kPa, x2 = 0.9485 | 1230.18 ± 0.38
293.3 K, 6018 kPa, x2 = 0.9485 | 1233.75 ± 0.39
293.31 K, 1086 kPa, x2 = 0.9798 | 1222.61 ± 0.34
293.31 K, 2003 kPa, x2 = 0.9798 | 1226.87 ± 0.35
293.31 K, 2985 kPa, x2 = 0.9798 | 1231.29 ± 0.35
293.31 K, 4010 kPa, x2 = 0.9798 | 1235.72 ± 0.36
293.31 K, 4992 kPa, x2 = 0.9798 | 1239.84 ± 0.36
293.31 K, 6009 kPa, x2 = 0.9798 | 1243.96 ± 0.36
293.32 K, 1047 kPa, x2 = 0.9655 | 1219.81 ± 0.36
293.32 K, 2002 kPa, x2 = 0.9655 | 1223.94 ± 0.36
293.32 K, 2997 kPa, x2 = 0.9655 | 1228.11 ± 0.36
293.32 K, 3984 kPa, x2 = 0.9655 | 1232.11 ± 0.37
293.32 K, 5001 kPa, x2 = 0.9655 | 1236.1 ± 0.37
293.32 K, 5994 kPa, x2 = 0.9655 | 1239.88 ± 0.38
303.33 K, 1176 kPa, x2 = 0.9798 | 1187.73 ± 0.34
303.33 K, 1189 kPa, x2 = 0.9485 | 1184.28 ± 0.34
303.33 K, 1998 kPa, x2 = 0.9485 | 1188.03 ± 0.35
303.33 K, 2990 kPa, x2 = 0.9485 | 1192.49 ± 0.36
303.33 K, 3984 kPa, x2 = 0.9485 | 1196.79 ± 0.36
303.33 K, 5011 kPa, x2 = 0.9485 | 1201.05 ± 0.36
303.33 K, 5992 kPa, x2 = 0.9485 | 1205.02 ± 0.37
303.34 K, 2006 kPa, x2 = 0.9798 | 1192.33 ± 0.34
303.34 K, 3006 kPa, x2 = 0.9798 | 1197.65 ± 0.34
303.34 K, 4000 kPa, x2 = 0.9798 | 1202.73 ± 0.34
303.34 K, 4990 kPa, x2 = 0.9798 | 1207.56 ± 0.35
303.34 K, 6008 kPa, x2 = 0.9798 | 1212.35 ± 0.35
303.35 K, 1189 kPa, x2 = 0.9655 | 1186.88 ± 0.34
303.35 K, 2013 kPa, x2 = 0.9655 | 1191.11 ± 0.35
303.35 K, 2992 kPa, x2 = 0.9655 | 1195.95 ± 0.35
303.35 K, 4008 kPa, x2 = 0.9655 | 1200.76 ± 0.35
303.35 K, 4992 kPa, x2 = 0.9655 | 1205.25 ± 0.36
303.35 K, 5987 kPa, x2 = 0.9655 | 1209.62 ± 0.36
313.35 K, 1434 kPa, x2 = 0.9485 | 1152.06 ± 0.34
313.35 K, 1434 kPa, x2 = 0.9798 | 1151.46 ± 0.34
313.35 K, 2004 kPa, x2 = 0.9798 | 1155.29 ± 0.35
313.35 K, 2014 kPa, x2 = 0.9485 | 1155.26 ± 0.34
313.35 K, 2982 kPa, x2 = 0.9798 | 1161.59 ± 0.34
313.35 K, 2990 kPa, x2 = 0.9485 | 1160.47 ± 0.34
313.35 K, 3990 kPa, x2 = 0.9485 | 1165.56 ± 0.35
313.35 K, 4985 kPa, x2 = 0.9485 | 1170.41 ± 0.35
313.35 K, 4986 kPa, x2 = 0.9798 | 1173.51 ± 0.34
313.35 K, 5997 kPa, x2 = 0.9485 | 1175.14 ± 0.35
313.36 K, 1436 kPa, x2 = 0.9655 | 1152.44 ± 0.34
313.36 K, 3010 kPa, x2 = 0.9655 | 1161.91 ± 0.34
313.36 K, 3986 kPa, x2 = 0.9798 | 1167.71 ± 0.34
313.36 K, 5983 kPa, x2 = 0.9798 | 1179.03 ± 0.34
313.37 K, 2008 kPa, x2 = 0.9655 | 1155.97 ± 0.34
313.37 K, 4000 kPa, x2 = 0.9655 | 1167.49 ± 0.34
313.37 K, 5010 kPa, x2 = 0.9655 | 1172.9 ± 0.34
313.37 K, 5984 kPa, x2 = 0.9655 | 1177.91 ± 0.35
323.39 K, 1731 kPa, x2 = 0.9798 | 1112.96 ± 0.36
323.39 K, 1737 kPa, x2 = 0.9485 | 1118.26 ± 0.35
323.39 K, 1989 kPa, x2 = 0.9798 | 1115.09 ± 0.36
323.39 K, 1994 kPa, x2 = 0.9485 | 1119.99 ± 0.34
323.39 K, 3007 kPa, x2 = 0.9485 | 1126.53 ± 0.34
323.39 K, 3987 kPa, x2 = 0.9485 | 1132.49 ± 0.34
323.39 K, 4990 kPa, x2 = 0.9485 | 1138.29 ± 0.34
323.39 K, 5982 kPa, x2 = 0.9485 | 1143.72 ± 0.34
323.4 K, 3001 kPa, x2 = 0.9798 | 1123.14 ± 0.36
323.4 K, 4006 kPa, x2 = 0.9798 | 1130.6 ± 0.35
323.4 K, 4997 kPa, x2 = 0.9798 | 1137.51 ± 0.35
323.4 K, 5982 kPa, x2 = 0.9798 | 1144 ± 0.34
323.41 K, 1737 kPa, x2 = 0.9655 | 1116.04 ± 0.35
323.41 K, 1998 kPa, x2 = 0.9655 | 1118.03 ± 0.35
323.41 K, 3002 kPa, x2 = 0.9655 | 1125.33 ± 0.35
323.41 K, 4001 kPa, x2 = 0.9655 | 1132.15 ± 0.34
323.41 K, 4985 kPa, x2 = 0.9655 | 1138.48 ± 0.34
323.41 K, 6012 kPa, x2 = 0.9655 | 1144.72 ± 0.34
